Measurements from ChEMBL document CHEMBL1130081, “Inhibition of human telomerase by a G-quadruplex-interactive compound” (J Med Chem, 1997).

Target: Telomerase reverse transcriptase (Homo sapiens, UniProt O14746)
Experiment: Inhibitory concentration against human telomerase.

Telomerase reverse transcriptase, sequence (O14746 whole entry): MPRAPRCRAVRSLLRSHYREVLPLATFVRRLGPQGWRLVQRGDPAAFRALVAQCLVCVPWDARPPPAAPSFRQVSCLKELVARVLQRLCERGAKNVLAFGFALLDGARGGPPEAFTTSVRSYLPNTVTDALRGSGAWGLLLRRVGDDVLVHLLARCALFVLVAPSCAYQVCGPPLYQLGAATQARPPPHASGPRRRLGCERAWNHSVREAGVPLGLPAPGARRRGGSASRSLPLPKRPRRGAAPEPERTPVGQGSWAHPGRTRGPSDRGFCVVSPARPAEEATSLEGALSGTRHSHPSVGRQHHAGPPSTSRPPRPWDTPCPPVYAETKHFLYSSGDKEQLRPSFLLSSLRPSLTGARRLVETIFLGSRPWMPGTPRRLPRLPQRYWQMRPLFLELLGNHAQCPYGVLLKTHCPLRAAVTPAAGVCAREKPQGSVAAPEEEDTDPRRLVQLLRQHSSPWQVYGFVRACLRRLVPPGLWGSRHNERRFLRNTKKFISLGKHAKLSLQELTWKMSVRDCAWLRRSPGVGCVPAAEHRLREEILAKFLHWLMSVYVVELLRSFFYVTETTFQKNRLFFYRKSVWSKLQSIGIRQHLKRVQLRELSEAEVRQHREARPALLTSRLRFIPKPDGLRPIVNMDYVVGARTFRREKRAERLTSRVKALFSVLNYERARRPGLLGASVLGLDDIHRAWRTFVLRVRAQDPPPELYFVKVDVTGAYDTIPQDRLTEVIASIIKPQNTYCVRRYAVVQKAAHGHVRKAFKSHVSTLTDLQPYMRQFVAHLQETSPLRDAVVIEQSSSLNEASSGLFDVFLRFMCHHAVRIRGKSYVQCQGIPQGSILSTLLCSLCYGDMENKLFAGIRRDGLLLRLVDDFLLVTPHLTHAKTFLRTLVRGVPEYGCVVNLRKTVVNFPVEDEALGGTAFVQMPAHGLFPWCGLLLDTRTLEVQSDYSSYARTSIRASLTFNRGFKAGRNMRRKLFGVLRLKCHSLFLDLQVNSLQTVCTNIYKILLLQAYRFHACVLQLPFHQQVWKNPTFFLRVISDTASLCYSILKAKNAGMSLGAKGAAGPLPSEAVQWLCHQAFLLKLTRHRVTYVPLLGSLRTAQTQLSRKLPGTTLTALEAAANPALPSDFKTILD

With `C[N+]1(CCC(=O)Nc2ccc3c(c2)C(=O)c2ccc(NC(=O)CC[N+]4(C)CCCCC4CO)cc2C3=O)CCCCC1CO` (stereo unspecified) the IC50 was 23 µM.
